Literature values, collected in US9034830B2, “Methods and compositions for sustained delivery of drugs” (INTRATUS, INC., priority 2009, dated 2015).

Test system: patients

Brc1c(NC2=NCCN2)ccc2nccnc12 [Brimonidine]
more patients who had to discontinue due to lack of clinical effect (0.2% eye drop, FDA clinical data): 30% | drop in intraocular pressure (eye drop, dosed at least two times a day): ~24% | patients with side-effects (itching, redness, intolerance) necessitating stoppage of the drug (eye drop, per FDA data): up to 20%
